Results from patent US11279703B2, “Fused pyrimidine compounds as BRD4 and JAK2 dual inhibitors and methods for use thereof” (APTOSE BIOSCIENCES INC., priority 2016, dated 2022).
Like-named read-outs stand apart in the source and are kept apart here.

How the values were obtained:
BRD4-BD1 = BRD4-BD1 (Homo sapiens (Human), UniProt O60885); experiment: AlphaLisa bromodomain binding assay, BRD4-BD1
JAK2 = JAK2 (Homo sapiens (Human), UniProt O60674); experiment: HTRF kinase assay, JAK2; format: biochemical
[1] = Table 6, read-out: BRD4(1) IC50

Sequence of JAK2 (O60674 whole entry): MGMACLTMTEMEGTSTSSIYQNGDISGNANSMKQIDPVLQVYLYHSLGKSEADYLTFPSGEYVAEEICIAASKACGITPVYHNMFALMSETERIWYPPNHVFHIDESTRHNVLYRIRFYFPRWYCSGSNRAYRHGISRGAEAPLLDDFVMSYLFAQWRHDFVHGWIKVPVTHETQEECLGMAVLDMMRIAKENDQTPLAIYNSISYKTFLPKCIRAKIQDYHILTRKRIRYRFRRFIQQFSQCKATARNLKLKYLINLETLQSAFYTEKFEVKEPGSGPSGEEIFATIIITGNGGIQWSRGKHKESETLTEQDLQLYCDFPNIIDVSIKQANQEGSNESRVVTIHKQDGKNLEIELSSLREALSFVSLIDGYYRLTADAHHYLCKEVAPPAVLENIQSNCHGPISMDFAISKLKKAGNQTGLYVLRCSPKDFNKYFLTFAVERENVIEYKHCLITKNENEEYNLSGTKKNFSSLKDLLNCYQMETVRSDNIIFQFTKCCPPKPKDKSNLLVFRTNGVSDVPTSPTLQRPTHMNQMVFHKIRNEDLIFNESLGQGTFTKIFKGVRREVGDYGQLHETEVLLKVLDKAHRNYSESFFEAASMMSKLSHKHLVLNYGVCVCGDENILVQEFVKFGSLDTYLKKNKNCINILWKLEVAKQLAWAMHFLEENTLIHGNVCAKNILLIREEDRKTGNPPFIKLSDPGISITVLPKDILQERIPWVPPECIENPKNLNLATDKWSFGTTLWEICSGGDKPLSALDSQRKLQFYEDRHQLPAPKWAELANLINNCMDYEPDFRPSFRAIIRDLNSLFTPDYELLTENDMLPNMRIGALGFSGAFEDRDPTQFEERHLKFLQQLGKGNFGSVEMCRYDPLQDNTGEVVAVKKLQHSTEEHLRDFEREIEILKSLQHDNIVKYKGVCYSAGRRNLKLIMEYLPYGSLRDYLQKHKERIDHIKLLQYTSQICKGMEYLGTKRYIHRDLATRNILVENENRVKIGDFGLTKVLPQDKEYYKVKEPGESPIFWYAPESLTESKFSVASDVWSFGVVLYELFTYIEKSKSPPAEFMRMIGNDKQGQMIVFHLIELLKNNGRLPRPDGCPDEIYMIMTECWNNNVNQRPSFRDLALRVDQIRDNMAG

SMILES	IC50 (BRD4-BD1; [1]) [nM]	IC50 (JAK2; Table 6) [nM]	IC50 (BRD4-BD1; Table 5, read-out: BRD4 IC50) [nM]	IC50 (JAK2; Table 5) [nM]
COc1cc(Nc2ncc3scc(-c4cccc(NS(=O)(=O)C(C)(C)C)c4)c3n2)ccc1N1CCNCC1	356	4	–	–
CNC1CCN(c2ccc(Nc3ncc4ccn(-c5cccc(NS(=O)(=O)C(C)(C)C)c5)c4n3)cc2F)CC1	357	6	–	–
CNC1CCN(c2ccc(Nc3ncc4scc(-c5cccc(NS(=O)(=O)C(C)(C)C)c5)c4n3)cc2F)CC1	431	2	–	–
CNC1CCN(C(=O)c2ccc(Nc3ncc4ccn(-c5cccc(NS(=O)(=O)C(C)(C)C)c5)c4n3)cc2F)CC1	234	29	–	–
CNC1CCN(C(=O)c2ccc(Nc3ncc4scc(-c5cccc(NS(=O)(=O)C(C)(C)C)c5)c4n3)cc2F)CC1	298	12	–	–
CN1CCN2c3c(F)cc(Nc4ncc5ccn(-c6ccc(F)c(NS(=O)(=O)C(C)(C)C)c6)c5n4)cc3CC2C1 (centres unmarked)	383	56	–	–
CC(C)(C)S(=O)(=O)Nc1cccc(-c2csc3cnc(Nc4cc(F)c5c(c4)CC4CNCCN54)nc23)c1 (centres unmarked)	766	5	–	–
CNC1CCN(c2ccc(Nc3ncc4ccn(-c5cccc(NS(=O)(=O)C(C)(C)C)c5)c4n3)cc2)C1 (centres unmarked)	538	17	–	–
CNCC1CCN(c2ccc(Nc3ncc4ccn(-c5cccc(NS(=O)(=O)C(C)(C)C)c5)c4n3)cc2F)CC1	220	7	–	–
CN1CCN(c2ccc(Nc3ncc4ccn(-c5cccc(NS(=O)(=O)C6CC6)c5)c4n3)cc2)CC1 [drawing 74]	–	–	355	2.5
CN(C)C1CCN(c2ccc(Nc3ncc4ccn(-c5cccc(NS(=O)(=O)C(C)(C)C)c5)c4n3)cc2)CC1 [drawing 75]	–	–	173	7.3
CN(C)C1CCN(c2ccc(Nc3ncc4ccn(-c5cccc(NS(=O)(=O)C(C)(C)C)c5)c4n3)cc2F)CC1 [drawing 76]	–	–	131	3
Cc1cnc(Nc2ccc(N3CCN(C)CC3)cc2)nc1Nc1cccc(NS(=O)(=O)C(C)(C)C)c1 [drawing 114]	211	12	–	–
Cc1cnc(Nc2ccc(N3CCN(C)CC3)cc2)nc1Nc1cccc(NS(=O)(=O)C(C)(C)C)c1 [drawing 196]	180	10	–	–
Cc1cnc(Nc2ccc(N3CCN(C)CC3)cc2)nc1Nc1cccc(NS(=O)(=O)C(C)(C)C)c1 [drawing 226]	221	7	–	–
Cc1cnc(Nc2ccc(N3CCN(C)CC3)cc2)nc1Nc1cccc(NS(=O)(=O)C(C)(C)C)c1 [drawing 231]	133	8	–	–
Cc1cnc(Nc2ccc(N3CCN(C)CC3)cc2)nc1Nc1cccc(NS(=O)(=O)C(C)(C)C)c1 [drawing 258]	255	10	–	–
CC(C)(C)S(=O)(=O)Nc1cccc(Nc2nc(NC3CCNCC3)nc3sccc23)c1 [drawing 267]	590	10000	–	–
CC(C)(C)S(=O)(=O)Nc1cccc(Nc2nc(NC3CCNCC3)nc3sccc23)c1 [drawing 270]	257	10000	–	–
Cc1cnc(Nc2ccc(N3CCN(C)CC3)cc2)nc1Nc1cccc(NS(=O)(=O)C(C)(C)C)c1 [drawing 276]	164	8	–	–
Cc1cnc(Nc2ccc(N3CCN(C)CC3)cc2)nc1Nc1cccc(NS(=O)(=O)C(C)(C)C)c1 [drawing 281]	228	10	–	–
Cc1noc(C)c1-c1cccc(-n2ccc3cnc(Nc4ccc(N5CCN(C)CC5)cc4)nc32)c1 [drawing 285]	2330	3	–	–
CN1CCN(c2ccc(Nc3ncc4ccn(-c5cccc(NS(=O)(=O)c6ccccc6)c5)c4n3)cc2)CC1 [drawing 287]	10000	3	–	–
Cc1cnc(Nc2ccc(N3CCN(C)CC3)cc2)nc1Nc1cccc(NS(=O)(=O)C(C)(C)C)c1 [drawing 292]	280	9	–	–
CC(C)(C)S(=O)(=O)Nc1cccc(-n2ccc3cnc(Nc4ccc(N5CCNCC5)cc4)nc32)c1 [drawing 306]	394	10	–	–
O=S(=O)(Nc1cccc(-n2ccc3cnc(Nc4ccc(N5CCNCC5)cc4)nc32)c1)C1CC1 [drawing 307]	1350	5	–	–

SMILES	IC50 (BRD4-BD1; [1]) [nM]	IC50 (JAK2; Table 6) [nM]	IC50 (BRD4-BD1; Table 5, read-out: BRD4 IC50) [nM]	IC50 (JAK2; Table 5) [nM]
O=S(=O)(Nc1cccc(-n2ccc3cnc(Nc4ccc(N5CCNCC5)cc4)nc32)c1)C1CC1 [drawing 320]	451	6	–	–
Cc1cnc(Nc2ccc(N3CCN(C)CC3)cc2)nc1Nc1cccc(NS(=O)(=O)C(C)(C)C)c1 [drawing 321]	166	13	–	–
CN1CCC(NC(=O)c2ccc(Nc3ncc4ccn(-c5ccc(F)c(NS(=O)(=O)C(C)(C)C)c5)c4n3)cc2F)CC1 [drawing 335]	94	360000	–	–
Cc1cnc(Nc2ccc(N3CCN(C)CC3)cc2)nc1Nc1cccc(NS(=O)(=O)C(C)(C)C)c1 [drawing 339]	235	43	–	–
CN1CCN(c2ccc(Nc3ncc4ccn(-c5ccc(F)c(NS(=O)(=O)C(C)(C)C)c5)c4n3)cc2)CC1 [drawing 340]	228	188	–	–
Cc1cnc(Nc2ccc(N3CCN(C)CC3)cc2)nc1Nc1cccc(NS(=O)(=O)C(C)(C)C)c1 [drawing 353]	278	6.6	–	–
CN1CCN(c2ccc(Nc3ncc4ccn(-c5cccc(NS(=O)(=O)C6CC6)c5)c4n3)cc2)CC1 [drawing 356]	1800	8	–	–
CN1CCN(c2ccc(Nc3ncc4ccn(-c5ccc(NS(=O)(=O)C(C)(C)C)cc5)c4n3)cc2)CC1 [drawing 362]	10000	0.7	–	–
CN1CCC(NC(=O)c2ccc(Nc3ncc4ccn(-c5ccc(F)c(NS(=O)(=O)C(C)(C)C)c5)c4n3)cc2F)CC1 [drawing 363]	134	130	–	–
CN(C)C1CCN(c2ccc(Nc3ncc4ccn(-c5cccc(NS(=O)(=O)C(C)(C)C)c5)c4n3)cc2)CC1 [drawing 368]	190	5	–	–
CN(C)C1CCN(c2ccc(Nc3ncc4ccn(-c5cccc(NS(=O)(=O)C(C)(C)C)c5)c4n3)cc2F)CC1 [drawing 371]	131	3	–	–
CN(C)C1CCN(c2ccc(Nc3ncc4ccn(-c5ccc(F)c(NS(=O)(=O)C(C)(C)C)c5)c4n3)cc2F)CC1 [drawing 373]	153	27	–	–
Cc1cnc(Nc2ccc(N3CCN(C)CC3)cc2)nc1Nc1cccc(NS(=O)(=O)C(C)(C)C)c1 [drawing 375]	316	9.3	–	–
CN1CCN(c2ccc(Nc3ncc4ccn(-c5ccc(CNS(=O)(=O)C(C)(C)C)cc5)c4n3)cc2)CC1 [drawing 378]	10000	0.18	–	–
Cc1cnc(Nc2ccc(N3CCN(C)CC3)cc2)nc1Nc1cccc(NS(=O)(=O)C(C)(C)C)c1 [drawing 384]	138	10	–	–
CN(C)C1CCN(c2ccc(Nc3ncc4ccn(-c5cccc(NS(=O)(=O)C(C)(C)C)c5)c4n3)cc2F)CC1 [drawing 385]	131	3	–	–
Cc1cnc(Nc2ccc(N3CCN(C)CC3)cc2)nc1Nc1cccc(NS(=O)(=O)C(C)(C)C)c1 [drawing 391]	141	6	–	–
Cc1cnc(Nc2ccc(N3CCN(C)CC3)cc2)nc1Nc1cccc(NS(=O)(=O)C(C)(C)C)c1 [drawing 396]	155	7	–	–
CN(C)C1CCN(c2ccc(Nc3ncc4ccn(-c5ccc(F)c(NS(=O)(=O)C(C)(C)C)c5)c4n3)cc2F)CC1 [drawing 397]	63	27	–	–
CN1CCN(c2ccc(Nc3ncc4ccn(-c5ccc6c(c5)CCN6S(=O)(=O)C(C)(C)C)c4n3)cc2)CC1 [drawing 398]	10000	0.6	–	–
CN(C)C1CCN(c2ccc(Nc3ncc4ccn(-c5cccc(NS(=O)(=O)C(C)(C)C)c5)c4n3)cc2F)CC1 [drawing 401]	377	4.4	–	–
CC(C)(C)S(=O)(=O)Nc1cccc(-n2ccc3cnc(Nc4ccc5c(c4)CC4CNCCN54)nc32)c1 (centres unmarked) [drawing 404]	393	18	–	–
Cc1cnc(Nc2ccc(N3CCN(C)CC3)cc2)nc1Nc1cccc(NS(=O)(=O)C(C)(C)C)c1 [drawing 405]	208	14	–	–
CC(C)(C)S(=O)(=O)Nc1cccc(Nc2nc(NC3CCNCC3)nc3sccc23)c1 [drawing 406]	1200	10000	–	–
CN1CCC(Nc2nc(Nc3ccc4c(c3)N(S(=O)(=O)C(C)(C)C)CC4)c3ccsc3n2)CC1 [drawing 407]	315	10000	–	–
CN(C)C1CCN(c2ccc(Nc3ncc4ccn(-c5ccc(F)c(NS(=O)(=O)C(C)(C)C)c5)c4n3)cc2F)CC1 [drawing 408]	63	43	–	–
